For this experiment, the target named is KRAS G12D (Homo sapiens, UniProt P01116, G12D). The experiment in a line: GDP-GTP exchange assay (bodipy-GDP/GppNHp, SOS1), KRAS G12D. The experiment is classed as biochemical. The settings on record: bodipy-loaded KRAS G12D 2.5 nM, 4 hours incubation after adding GppNHp-SOS1 mixture. How it is done: The inhibitor potency of the exemplified compounds was determined in a fluorescence based guanine nucleotide exchange assay, which measures the exchange of bodipy-GDP (fluorescently labeled GDP) for GppNHp (Non-hydrolyzable GTP analog) to generate the active state of KRAS in the presence of SOS1 (guanine nucleotide exchange factor). Inhibitors were serially diluted in DMSO and a volume of 0.1 μL was transferred to the wells of a black low volume 384-well plate. 5 μL/well volume of bodipy-loaded KRAS G12C diluted to 5 nM in assay buffer (25 mM Hepes pH 7.5, 50 mM NaCl, 10 mM MgCl2 and 0.01% Brij-35) was added to the plate and pre-incubated with inhibitor for 2 hours at ambient temperature. Appropriate controls (enzyme with no inhibitor or with a G12C inhibitor (AMG-510)) were included on the plate. The exchange was initiated by the addition of a 5 μL/well volume containing 1 mM GppNHp and 300 nM SOS1 in assay buffer. The 10 μL/well reaction concentration of the bodipy-loaded KRAS G12C, GppNHp, and SOS1 were 2.5 nM, 500 uM, and 150 nM, respectively. The reaction plates were incubated at ambient temperature for 2 hours, a time estimated for complete GDP-GTP exchange in the absence of inhibitor. For the KRAS G12D and G12V mutants, similar guanine nucleotide exchange assays were used with 2.5 nM as final concentration for the bodipy loaded KRAS proteins and with 4 hours and 3 hours incubation after adding GppNHp-SOS1 mixture for G12D and G12V respectively. A cyclic peptide described to selectively bind G12D mutant (Sakamoto et al., BBRC 484.3 (2017), 605-611) or internal compounds with confirmed binding were used as positive controls in the assay plates. Fluorescence intensities were measured on a PheraStar plate reader instrument (BMG Labtech) with excitation at 485 nm and emission at 520 nm.
Either GraphPad prism or XLfit was used to analyze the data. The IC50 values were derived by fitting the data to a four parameter logistic equation producing a sigmoidal dose-response curve with a variable Hill coefficient. Prism equation: Y=Bottom+(Top−Bottom)/(1+10^((Log IC50−X)*Hill slope)); XLfit equation: Y=(A+((B−A)/(1+((X/C)^D)))) where X is the logarithm of inhibitor concentration and Y is the response.
The symbol “†” indicates IC50≤100 nM, “††” indicates IC50>100 nM but ≤1 μM; and “†††” indicates IC50 is >1 μM but ≤5 μM, “††††” indicates IC50 is >5 μM but ≤10 μM.

For orientation: IC50 means the concentration needed to halve the response being measured.

Sequence of KRAS G12D (P01116 1-188 isoform P01116-2 G12D): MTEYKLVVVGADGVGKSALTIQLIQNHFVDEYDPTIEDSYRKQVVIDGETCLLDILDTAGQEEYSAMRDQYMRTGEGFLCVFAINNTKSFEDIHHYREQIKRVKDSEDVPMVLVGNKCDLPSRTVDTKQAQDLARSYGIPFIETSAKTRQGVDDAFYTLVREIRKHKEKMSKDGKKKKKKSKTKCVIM

On to `CN1CCC(Oc2nc(N3C4CCC3CNC4)c3cc(CCC#N)c(-c4cc(O)cc5ccccc45)c(F)c3c2C#N)CC1` [Example 8, 1-(3,8-diazabicyclo[3.2.1]octan-8-yl)-7-(2-cyanoethyl)-5-fluoro-6-(3-hydroxynaphthalen-1-yl)-3-((1-methylpiperidin-4-yl)oxy)isoquinoline-4-carbonitrile], for which the IC50 fell in the range of 100 to 1000 nM.

As for `C[C@@H]1C[C@H](N)CN1c1nc(N2CC(N(C)C)C2)c(C#N)c2c(F)c(-c3cc(O)cc4ccccc34)c(CCC#N)cc12` [Example 14, 1-((2R,4S)-4-amino-2-methylpyrrolidin-1-yl)-7-(2-cyanoethyl)-3-(3-(dimethylamino)azetidin-1-yl)-5-fluoro-6-(3-hydroxynaphthalen-1-yl)isoquinoline-4-carbonitrile], the IC50 is ≤ 100 nM.

`CCc1c(F)ccc2cc(O)cc(-c3ncc4c(N5CC6CCC(C5)N6)nc(N5CC(C)(N(C)C)C5)c(C#N)c4c3F)c12` [Example 16, 1-(3,8-diazabicyclo[3.2.1]octan-3-yl)-3-(3-(dimethylamino)-3-methylazetidin-1-yl)-6-(8-ethyl-7-fluoro-3-hydroxynaphthalen-1-yl)-5-fluoro-2,7-naphthyridine-4-carbonitrile]: the IC50 is ≤ 100 nM.

On to `CN(C)C1CN(c2nc(N3C4CCC3CNC4)c3cc(CCC#N)c(-c4cc(O)cc5ccccc45)c(F)c3c2Cl)C1` [Example 2, 3-(1-(3,8-diazabicyclo[3.2.1]octan-8-yl)-4-chloro-3-(3-(dimethylamino)azetidin-1-yl)-5-fluoro-6-(3-hydroxynaphthalen-1-yl)isoquinolin-7-yl)propanenitrile], for which the IC50 is 100 to 1000 nM.

On to `CN(C)Cc1cccc(-c2nc(N3C4CCC3CNC4)c3cc(CCC#N)c(-c4cc(O)cc5ccccc45)c(F)c3c2C#N)c1` [Example 9, 1-(3,8-diazabicyclo[3.2.1]octan-8-yl)-7-(2-cyanoethyl)-3-(3-((dimethylamino)methyl)phenyl)-5-fluoro-6-(3-hydroxynaphthalen-1-yl)isoquinoline-4-carbonitrile], for which the concentration for half-maximal inhibition (IC50) fell in the range of 100 to 1000 nM.

Take `CN(C)C1CN(c2nc(N3C4CCC3CNC4)c3cc(CCC#N)c(-c4cc(O)cc5ccccc45)c(F)c3c2-c2ccccc2)C1` [Example 4, 3-(1-(3,8-diazabicyclo[3.2.1]octan-8-yl)-3-(3-(dimethylamino)azetidin-1-yl)-5-fluoro-6-(3-hydroxynaphthalen-1-yl)-4-phenylisoquinolin-7-yl)propanenitrile]: the IC50 is 5000 to 10000 nM.

`CN(C)C1CN(c2nc(N3C[C@H]4CC[C@@H]3CN4)c3cc(CCC#N)c(-c4cc(O)cc5ccccc45)c(F)c3c2C#N)C1` [Example 10, 1-((1R,4R)-2,5-diazabicyclo[2.2.2]octan-2-yl)-7-(2-cyanoethyl)-3-(3-(dimethylamino)azetidin-1-yl)-5-fluoro-6-(3-hydroxynaphthalen-1-yl)isoquinoline-4-carbonitrile]: the IC50 fell in the range of 100 to 1000 nM.

Take `CN1CCC[C@H]1COc1nc(N2C3CCC2CNC3)c2cc(CCC#N)c(-c3cc(O)cc4ccccc34)c(F)c2c1C#N` [Example 7, 1-(3,8-diazabicyclo[3.2.1]octan-8-yl)-7-(2-cyanoethyl)-5-fluoro-6-(3-hydroxynaphthalen-1-yl)-3-(((S)-1-methylpyrrolidin-2-yl)methoxy)isoquinoline-4-carbonitrile]: the IC50 lay in the range of 100 to 1000 nM.

For `CN(C)C1CN(c2nc(N3C4CCC3CNC4)c3ccc(-c4cc(O)cc5ccccc45)c(F)c3c2C#N)C1` [Example 1, 1-(3,8-diazabicyclo[3.2.1]octan-8-yl)-3-(3-(dimethylamino)azetidin-1-yl)-5-fluoro-6-(3-hydroxynaphthalen-1-yl)isoquinoline-4-carbonitrile], the IC50 is ≤ 100 nM.

Consider `CN(C)C1CN(c2nc(N3C[C@@H](N)C[C@H]3CO)c3cc(CCC#N)c(-c4cc(O)cc5ccccc45)c(F)c3c2C#N)C1` [Example 11, 1-((2S,4S)-4-amino-2-(hydroxymethyl)pyrrolidin-1-yl)-7-(2-cyanoethyl)-3-(3-(dimethylamino)azetidin-1-yl)-5-fluoro-6-(3-hydroxynaphthalen-1-yl)isoquinoline-4-carbonitrile], for which the IC50 was in the range of 100 to 1000 nM.

On to `CN(C)C1CN(c2nc(N3CCC(CC#N)C3)c3cc(CCC#N)c(-c4cc(O)cc5ccccc45)c(F)c3c2C#N)C1` (stereo not shown) [Example 12, 7-(2-cyanoethyl)-1-(3-(cyanomethyl)pyrrolidin-1-yl)-3-(3-(dimethylamino)azetidin-1-yl)-5-fluoro-6-(3-hydroxynaphthalen-1-yl)isoquinoline-4-carbonitrile], for which the IC50 was ≤ 100 nM.

As to `Cc1c(N2CC(N(C)C)C2)nc(N2C3CCC2CNC3)c2cc(CCC#N)c(-c3cc(O)cc4ccccc34)c(F)c12` [Example 3, 3-(1-(3,8-diazabicyclo[3.2.1]octan-8-yl)-3-(3-(dimethylamino)azetidin-1-yl)-5-fluoro-6-(3-hydroxynaphthalen-1-yl)-4-methylisoquinolin-7-yl)propanenitrile], the IC50 lay in the range of 100 to 1000 nM.

`N#Cc1c(OC[C@@]23CCCN2C[C@H](F)C3)nc(N2CC3CCC(C2)N3)c2cnc(-c3cc(O)cc4ccccc34)c(F)c12` [Example 15, 1-(3,8-diazabicyclo[3.2.1]octan-3-yl)-5-fluoro-3-(((2R,7aS)-2-fluorotetrahydro-1H-pyrrolizin-7a(5H)-yl)methoxy)-6-(3-hydroxynaphthalen-1-yl)-2,7-naphthyridine-4-carbonitrile]: the IC50 is ≤ 100 nM.

Regarding `CN(C)C1CN(c2nc(N3C4CCC3CNC4)c3cc(CCC#N)c(-c4cc(O)cc5ccccc45)c(F)c3c2C2CC2)C1` [Example 5, 3-(1-(3,8-diazabicyclo[3.2.1]octan-8-yl)-4-cyclopropyl-3-(3-(dimethylamino)azetidin-1-yl)-5-fluoro-6-(3-hydroxynaphthalen-1-yl)isoquinolin-7-yl)propanenitrile], the IC50 lay within 100 to 1000 nM.

For the molecule `CN(C)C1CN(c2nc(N3C4CCC3CNC4)c3cc(CCC#N)c(-c4cc(O)cc5ccccc45)c(F)c3c2C#N)C1` [Example 6, 1-(3,8-diazabicyclo[3.2.1]octan-8-yl)-7-(2-cyanoethyl)-3-(3-(dimethylamino)azetidin-1-yl)-5-fluoro-6-(3-hydroxynaphthalen-1-yl)isoquinoline-4-carbonitrile], the IC50 was 100 to 1000 nM.

As for `CN(C)C1CN(c2nc(N3CC[C@H](N)C3)c3cc(CCC#N)c(-c4cc(O)cc5ccccc45)c(F)c3c2C#N)C1` [Example 13, 1-((S)-3-aminopyrrolidin-1-yl)-7-(2-cyanoethyl)-3-(3-(dimethylamino)azetidin-1-yl)-5-fluoro-6-(3-hydroxynaphthalen-1-yl)isoquinoline-4-carbonitrile], the half-maximal inhibitory concentration (IC50) was ≤ 100 nM.

The values above are taken from patent US12331063B2, “Hetero-bicyclic inhibitors of KRAS” (Incyte Corporation, priority 2021, dated 2025).
